From patent publication US8119624B2, “Fused phenyl amido heterocyclic compounds” (Pfizer Inc., priority 2006, dated 2012)

Molecular target: T1, Full-length glucokinase (beta cell isoform) (Homo sapiens, UniProt P35557)
T1 construct: Full-length glucokinase (beta cell isoform) was His-tagged at N-terminus; His tag (N); made in house
T1 sequence (P35557 1-465): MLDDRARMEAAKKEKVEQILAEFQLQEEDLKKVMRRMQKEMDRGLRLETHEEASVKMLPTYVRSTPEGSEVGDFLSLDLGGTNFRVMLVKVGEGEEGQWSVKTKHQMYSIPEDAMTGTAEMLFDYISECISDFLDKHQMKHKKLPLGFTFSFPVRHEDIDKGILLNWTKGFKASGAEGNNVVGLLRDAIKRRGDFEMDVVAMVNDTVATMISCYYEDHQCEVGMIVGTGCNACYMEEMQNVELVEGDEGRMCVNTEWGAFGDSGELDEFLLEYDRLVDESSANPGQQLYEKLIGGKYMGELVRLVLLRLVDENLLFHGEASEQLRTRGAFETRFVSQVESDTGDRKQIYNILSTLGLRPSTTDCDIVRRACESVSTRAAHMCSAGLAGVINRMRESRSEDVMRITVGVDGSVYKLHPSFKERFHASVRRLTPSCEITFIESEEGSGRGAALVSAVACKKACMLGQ
Experiment: Glucokinase biochemical assay (PK/LDH-coupled, NADH depletion at 340 nm): % activation, EC50, % max activation
Conditions: 5 mM glucose; for activation at 10 µM / % Activation at 10 uM: 10 uM compound, % Activation=(Va/Vo−1)×100; for activation at 10 µM: read-out: % Activation at 10 uM; for EC50: GK activation, read-out: EC50; for Emax / % Max Activation: fitted maximum activation; for Emax: read-out: % Max Activation
Method: Full-length glucokinase (beta cell isoform) was His-tagged at N-terminus and purified by a Ni column followed by size exclusion chromatography. Glucose was obtained from Calbiochem, and other reagents were from Sigma.
All assays were performed in a Corning 96-well plate using Spectramax PLUS spectrophotometer (Molecular Devices) at room temperature. The final assay volume was 100 uL. The buffer conditions used in this assay were as follows: 50 mM HEPES, 5 mM glucose, 1 mM ATP, 2 mM MgCl2, 0.7mM NADH, 2 mM DTT, 1 Unit/mL PK/LDH, 0.2 mM phosphoenolpyruvate, 25 mM KCl. Tested compound in DMSO solution was added to the buffer and mixed well by a plate shaker for 1 minute. The final concentration of DMSO introduced into the assay was 1%.
Glucokinase was added to the buffer mixture to initiate the reaction in the presence and absence of compound. Reaction was monitored by absorbance at 340nm due to the depletion of NADH. The initial reaction velocity was measured by the slope of a linear time course of 200-900 sec.
The percentage of activation was calculated by the following equation: % Activation=(Va/Vo−1)×100;
wherein each of Va and Vo is defined as the initial reaction velocity in the presence and absence of the tested compound, respectively.
The GK activities were measured as a function of compound concentrations.

SMILES | activation at 10 µM | EC50 | Emax | % Activation at 10 uM | % Max Activation
Cc1ccc(NC(=O)c2cc(Oc3ccc(C(=O)N(C)C)nc3)c3cc(C)oc3c2)nc1 [Example 277, N,N-Dimethyl-5-[(2-methyl-6-{[(5-methylpyridin-2-yl)amino]-carbonyl}-1-benzofuran-4-yl)oxy]pyridine-2-carboxamide] | 34.2% | – | – | – | –
Cn1ccc(NC(=O)c2cc(Oc3ccc(C(=O)N4CCOCC4)cc3F)c3c(c2)OC(C)(C)C3)n1 [Example 41, 4-[2-Fluoro-4-(morpholine-4-carbonyl)-phenoxy]-2,2-dimethyl-2,3-dihydro-benzofuran-6-carboxylic acid(1-methyl-1H-pyrazol-3-yl)-amide] | 138% | 1400 nM | 141% | – | –
Cc1ccc(NC(=O)c2cc(Oc3ccc(C(=O)N4CCC4)c(F)c3)c3c(c2)OC(CO)C3)nc1 (centres unmarked) [Example 203, 4-[4-(Azetidine-1-carbonyl)-3-fluoro-phenoxy]-2-hydroxymethyl-2,3-dihydro-benzofuran-6-carboxylic acid (5-methyl-pyridin-2-yl)-amide] | 82.6% | 810 nM | 91% | – | –
COCC1Cc2c(Oc3ccc(C(=O)N(C)C)cc3)cc(C(=O)Nc3ccn(C)n3)cc2O1 (single isomer, unassigned; (+)) [Example 212, (+)-4-(4-Dimethylcarbamoyl-phenoxy)-2-methoxymethyl-2,3-dihydro-benzofuran-6-carboxylic acid (1-methyl-1H-pyrazol-3-yl)-amide] | – | 2600 nM | – | 111% | 144%
Cn1ccc(NC(=O)c2cc(Oc3ccc(C(=O)N4CCC4)cc3)c3c(c2F)OC(C)(C)C3)n1 [Example 191, 4-[4-(Azetidine-1-carbonyl)-phenoxy]-7-fluoro-2,2-dimethyl-2,3-dihydro-benzofuran-6-carboxylic acid (1-methyl-1H-pyrazol-3-yl)-amide] | 91.2% | 1700 nM | 119% | – | –
Cn1ccc(NC(=O)c2cc(OCCCC#N)c3c(c2)OC(C)(C)C3)n1 [Example 93, 4-(3-Cyano-propoxy)-2,2-dimethyl-2,3-dihydro-benzofuran-6-carboxylic acid (1-methyl-1H-pyrazol-3-yl)-amide] | 95.2% | 9700 nM | 136% | – | –
Cc1cc2c(OC3CN(S(C)(=O)=O)C3)cc(C(=O)Nc3cnn(C)n3)cc2o1 [Example 325, 2-Methyl-4-{[1-(methylsulfonyl)azetidin-3-yl]oxy}-N-(2-methyl-2H-1,2,3-triazol-4-yl)-1-benzofuran-6-carboxamide] | 137% | > 10000 nM | – | – | –
CCOc1ccc(NC(=O)c2cc(Oc3ccc(S(=O)(=O)N4CCC4)cc3)c3cc(C)oc3c2)nc1 [Example 302, 4-(4-(Azetidin-1-ylsulfonyl)phenoxy)-N-(5-ethoxypyridin-2-yl)-2-methyl-benzofuran-6-carboxamide] | 123% | 1300 nM | 110% | – | –
CCc1nc(O)cc(COc2cc(C(=O)Nc3ccn(C)n3)cc3c2CC(C)(C)O3)n1 [Example 104, 4-(2-Ethyl-6-hydroxy-pyrimidin-4-ylmethoxy)-2,2-dimethyl-2,3-dihydro-benzofuran-6-carboxylic acid (1-methyl-1H-pyrazol-3-yl)-amide] | 149% | 1800 nM | 134% | – | –
CN(C)C(=O)c1ccc(Oc2cc(C(=O)Nc3ccccn3)cc3c2CC(C)(C)O3)cc1 [Example 157, 4-(4-Dimethylcarbamoyl-phenoxy)-2,2-dimethyl-2,3-dihydro-benzofuran-6-carboxylic acid pyridin-2-ylamide] | 69.2% | 190 nM | 71% | – | –
CN(C)C(=O)c1ccc(Oc2cc(C(=O)Nc3cc[nH]n3)cc3c2CC(C)(C)O3)cc1 [Example 152, 4-(4-Dimethylcarbamoyl-phenoxy)-2,2-dimethyl-2,3-dihydro-benzofuran-6-carboxylic acid (1H-pyrazol-3-yl)-amide] | 90.7% | 850 nM | 98% | – | –
CC1(C)Cc2c(Oc3ccc(S(C)(=O)=O)cc3)cc(C(=O)Nc3nnc(C4CC4)s3)cc2O1 [Example 28, 4-(4-Methanesulfonyl-phenoxy)-2,2-dimethyl-2,3-dihydro-benzofuran-6-carboxylic acid(5-cyclopropyl-[1,3,4]thiadiazol-2-yl)-amide] | 123% | 2000 nM | 158% | – | –
Cc1cc2c(Oc3ccc(S(C)(=O)=O)cc3)cc(C(=O)Nc3cnc(N(C)C)cn3)cc2o1 [Example 262, N-(5-(Dimethylamino)pyrazin-2-yl)-2-methyl-4-(4-(methylsulfonyl)-phenoxy)-benzofuran-6-carboxamide] | 151% | 780 nM | 137% | – | –
Cc1cc(NC(=O)c2cc(Oc3ccc(S(C)(=O)=O)cc3)c3c(c2)OC(C)(C)C3)no1 [Example 25, 4-(4-Methanesulfonyl-phenoxy)-2,2-dimethyl-2,3-dihydro-benzofuran-6-carboxylic acid(5-methyl-isoxazol-3-yl)-amide] | 102% | 1300 nM | 116% | – | –
CNC(=O)c1ccc(Oc2cc(C(=O)Nc3ccn(C)n3)cc3c2CC(C)(C)O3)cc1F [Example 69, 4-(3-Fluoro-4-methylcarbamoyl-phenoxy)-2,2-dimethyl-2,3-dihydro-benzofuran-6-carboxylic acid(1-methyl-1H-pyrazol-3-yl)-amide] | 122% | 370 nM | 129% | – | –
CN(C)C(=O)c1ccc(Oc2cc(C(=O)Nc3ccc(CNC4CC4)cn3)cc3c2CC(C)(C)O3)cc1F [Example 147, 4-(4-Dimethylcarbamoyl-3-fluoro-phenoxy)-2,2-dimethyl-2,3-dihydro-benzofuran-6-carboxylic acid (5-cyclopropylaminomethyl-pyridin-2-yl)-amide] | 35% | – | – | – | –
CN(C)C(=O)c1ccc(Oc2cc(C(=O)Nc3ccc(CO)cn3)cc3c2CC(C)(C)O3)cc1F [Example 145, 4-(4-Dimethylcarbamoyl-3-fluoro-phenoxy)-2,2-dimethyl-2,3-dihydro-benzofuran-6-carboxylic acid (5-hydroxymethyl-pyridin-2-yl)-amide] | 47.2% | 72.7 nM | 46.5% | – | –
CN(CC#N)C(=O)c1ccc(Oc2cc(C(=O)Nc3ccn(C)n3)cc3c2CC(C)(C)O3)cc1F [Example 67, 4-[4-(Cyanomethyl-methyl-carbamoyl)-3-fluoro-phenoxy]-2,2-dimethyl-2,3-dihydro-benzofuran-6-carboxylic acid(1-methyl-1H-pyrazol-3-yl)-amide] | 131% | 66 nM | 130% | – | –
Cc1cc2cc(C(=O)Nc3ccn(C)n3)cc(Oc3ccc(S(C)(=O)=O)cc3)c2s1 [Example 330, 2-Methyl-N-(1-methyl-1H-pyrazol-3-yl)-7-[4-(methylsulfonyl)-phenoxy]-1-benzothiophene-5-carboxamide] | 125% | 1700 nM | 162% | – | –
Cn1ccc(NC(=O)c2cc(Oc3cc(F)ccc3S(C)(=O)=O)c3c(c2)OC(C)(C)C3)n1 [Example 115, 4-(5-Fluoro-2-methanesulfonyl-phenoxy)-2,2-dimethyl-2,3-dihydro-benzofuran-6-carboxylic acid (1-methyl-1H-pyrazol-3-yl)-amide] | 79.7% | 8800 nM | 141% | – | –
Cc1cc(NC(=O)c2cc(Oc3ccc(S(C)(=O)=O)cc3)c3cc(C)oc3c2)no1 [Example 255, 2-Methyl-N-(5-methylisoxazol-3-yl)-4-(4-(methylsulfonyl)-phenoxy)-benzofuran-6-carboxamide] | 18.8% | – | – | – | –
COCC1(C)Cc2c(Oc3ccc(S(=O)(=O)C4CC4)cc3)cc(C(=O)Nc3cnn(C)n3)cc2O1 (single isomer, unassigned; (+)) [Example 250, (+)-4-(4-Cyclopropanesulfonyl-phenoxy)-2-methoxymethyl-2-methyl-2,3-dihydro-benzofuran-6-carboxylic acid (2-methyl-2H-[1,2,3]triazol-4-yl)-amide] | – | 420 nM | – | 227% | 246%
